# Assay results published in patent publication US12492188B2, “1H-benzo[D]imidazole derivatives as TLR9 inhibitors for the treatment of fibrosis” (BRISTOL-MYERS SQUIBB COMPANY, priority 2020, dated 2025).
# Like-named read-outs stand apart in the source and are kept apart here.
# Assays:
# Format in all cases: cell-based
# human TLR9 = target: T1, human TLR9 (Homo sapiens, UniProt Q9NR96); experiment: TLR9 inhibition reporter assay (HEK-Blue cells, secreted embryonic alkaline phosphatase reporter)
# T1 construct: host or cells: HEK-Blue cells (HEK293-derived reporter line)
# T1 sequence (Q9NR96 26-1032): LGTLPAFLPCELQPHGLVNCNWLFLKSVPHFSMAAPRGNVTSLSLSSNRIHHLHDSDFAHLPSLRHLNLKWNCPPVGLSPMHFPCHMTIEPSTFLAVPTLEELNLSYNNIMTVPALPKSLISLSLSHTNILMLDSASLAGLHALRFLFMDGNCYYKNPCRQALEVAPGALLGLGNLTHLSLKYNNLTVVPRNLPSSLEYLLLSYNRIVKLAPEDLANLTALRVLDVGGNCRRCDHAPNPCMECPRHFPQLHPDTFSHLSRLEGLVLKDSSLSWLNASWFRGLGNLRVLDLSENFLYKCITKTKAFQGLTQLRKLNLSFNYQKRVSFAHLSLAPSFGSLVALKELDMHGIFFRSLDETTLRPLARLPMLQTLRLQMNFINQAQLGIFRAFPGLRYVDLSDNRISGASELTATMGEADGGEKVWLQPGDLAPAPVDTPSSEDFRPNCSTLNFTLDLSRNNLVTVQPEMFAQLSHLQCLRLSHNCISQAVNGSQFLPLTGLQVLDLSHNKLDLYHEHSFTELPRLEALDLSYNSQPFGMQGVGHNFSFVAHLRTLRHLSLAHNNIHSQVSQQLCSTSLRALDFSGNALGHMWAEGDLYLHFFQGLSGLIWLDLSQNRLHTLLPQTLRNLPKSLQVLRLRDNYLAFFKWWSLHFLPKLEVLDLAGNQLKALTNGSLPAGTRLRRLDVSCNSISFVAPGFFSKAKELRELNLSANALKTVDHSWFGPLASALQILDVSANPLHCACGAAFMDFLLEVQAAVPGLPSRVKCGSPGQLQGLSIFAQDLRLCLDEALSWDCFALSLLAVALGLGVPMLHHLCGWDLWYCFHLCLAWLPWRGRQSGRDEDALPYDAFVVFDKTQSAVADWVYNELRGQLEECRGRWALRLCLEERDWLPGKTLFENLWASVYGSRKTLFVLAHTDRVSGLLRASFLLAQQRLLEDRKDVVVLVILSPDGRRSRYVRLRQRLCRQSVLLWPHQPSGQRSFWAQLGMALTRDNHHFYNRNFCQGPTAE
# Procedure, shortened: (§1)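 Cells seeded at 15000 (TLR7), 20,000 (TLR8) or 25,000 (TLR9) per well; compound 0.05 nM–50 μM, 30 min RT pre-incubation. Agonists: gardiquimod 7.5 μM, R848 15.9 μM, ODN2006 5 nM respectively. 22 h, 37 °C; SEAP via HEK-Blue Detection; % inhibition vs agonist+DMSO and known-inhibitor wells.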
# human TLR7 = target: T2, human TLR7 (Homo sapiens, UniProt Q9NYK1); experiment: TLR7 inhibition reporter assay (HEK-Blue cells, secreted embryonic alkaline phosphatase reporter); conditions: HEK-Blue cells overexpressing human TLR7, stimulated with gardiquimod 7.5 μM; read-out: TLR 7 IC50
# T2 construct: host or cells: HEK-Blue cells (HEK293-derived reporter line)
# T2 sequence (Q9NYK1 27-1049): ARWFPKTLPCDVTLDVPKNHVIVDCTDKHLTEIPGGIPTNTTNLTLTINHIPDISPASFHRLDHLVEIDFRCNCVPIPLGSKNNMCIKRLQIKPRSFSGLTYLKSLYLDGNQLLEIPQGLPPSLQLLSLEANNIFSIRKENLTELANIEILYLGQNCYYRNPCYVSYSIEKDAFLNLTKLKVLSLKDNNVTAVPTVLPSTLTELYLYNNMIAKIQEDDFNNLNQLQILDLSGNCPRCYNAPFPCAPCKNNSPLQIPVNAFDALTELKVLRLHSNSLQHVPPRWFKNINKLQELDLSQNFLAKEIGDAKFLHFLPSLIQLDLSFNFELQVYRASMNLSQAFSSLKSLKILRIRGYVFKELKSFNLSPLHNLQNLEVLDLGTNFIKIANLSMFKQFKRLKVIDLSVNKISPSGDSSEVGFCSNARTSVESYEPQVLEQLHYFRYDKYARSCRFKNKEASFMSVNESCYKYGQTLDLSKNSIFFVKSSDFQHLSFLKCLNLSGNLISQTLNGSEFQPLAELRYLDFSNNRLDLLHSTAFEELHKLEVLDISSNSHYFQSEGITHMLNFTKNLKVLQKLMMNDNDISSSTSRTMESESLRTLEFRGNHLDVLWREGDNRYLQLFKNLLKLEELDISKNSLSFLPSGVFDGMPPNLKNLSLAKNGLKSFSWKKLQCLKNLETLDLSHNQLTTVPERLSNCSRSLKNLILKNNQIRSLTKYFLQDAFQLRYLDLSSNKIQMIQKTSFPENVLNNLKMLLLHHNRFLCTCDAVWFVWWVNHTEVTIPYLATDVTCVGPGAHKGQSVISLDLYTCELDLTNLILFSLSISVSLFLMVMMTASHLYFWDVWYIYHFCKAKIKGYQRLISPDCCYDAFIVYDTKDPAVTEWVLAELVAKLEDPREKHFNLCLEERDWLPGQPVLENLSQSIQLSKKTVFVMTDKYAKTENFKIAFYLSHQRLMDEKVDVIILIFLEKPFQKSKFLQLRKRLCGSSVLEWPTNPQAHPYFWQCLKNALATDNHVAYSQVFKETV
# Procedure, shortened: as §1
# human TLR8 = target: T3, human TLR8 (Homo sapiens, UniProt Q9NR97); experiment: TLR8 inhibition reporter assay (HEK-Blue cells, secreted embryonic alkaline phosphatase reporter); conditions: HEK-Blue cells overexpressing human TLR8, stimulated with R848 15.9 μM; read-out: TLR 8 IC50
# T3 construct: host or cells: HEK-Blue cells (HEK293-derived reporter line)
# T3 sequence (Q9NR97 27-1041): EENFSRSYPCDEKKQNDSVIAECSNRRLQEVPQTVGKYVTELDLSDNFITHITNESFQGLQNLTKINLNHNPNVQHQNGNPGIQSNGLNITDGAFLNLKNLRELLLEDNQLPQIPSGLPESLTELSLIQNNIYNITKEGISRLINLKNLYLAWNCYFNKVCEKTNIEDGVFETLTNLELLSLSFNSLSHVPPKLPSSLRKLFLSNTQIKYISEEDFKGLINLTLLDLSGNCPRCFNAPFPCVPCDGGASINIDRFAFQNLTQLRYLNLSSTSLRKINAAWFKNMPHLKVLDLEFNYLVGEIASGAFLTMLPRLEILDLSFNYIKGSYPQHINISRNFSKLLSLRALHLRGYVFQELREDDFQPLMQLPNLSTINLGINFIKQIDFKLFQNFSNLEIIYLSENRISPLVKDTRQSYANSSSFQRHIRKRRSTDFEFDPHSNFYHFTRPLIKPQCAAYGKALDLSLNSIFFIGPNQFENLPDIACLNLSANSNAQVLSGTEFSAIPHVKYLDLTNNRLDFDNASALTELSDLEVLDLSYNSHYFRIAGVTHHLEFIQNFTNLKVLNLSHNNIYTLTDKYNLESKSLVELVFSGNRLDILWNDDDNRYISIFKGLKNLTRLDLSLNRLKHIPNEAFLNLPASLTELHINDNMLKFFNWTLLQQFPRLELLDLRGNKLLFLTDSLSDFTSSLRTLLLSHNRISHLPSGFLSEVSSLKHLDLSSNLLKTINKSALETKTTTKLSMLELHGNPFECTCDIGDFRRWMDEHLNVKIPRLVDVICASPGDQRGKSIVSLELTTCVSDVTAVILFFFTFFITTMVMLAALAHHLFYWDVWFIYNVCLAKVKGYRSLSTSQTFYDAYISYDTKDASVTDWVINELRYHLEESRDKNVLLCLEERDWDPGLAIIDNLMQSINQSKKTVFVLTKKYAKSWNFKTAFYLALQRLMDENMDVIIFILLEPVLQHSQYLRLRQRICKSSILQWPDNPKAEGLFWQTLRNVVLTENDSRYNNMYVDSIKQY
# Procedure, shortened: as §1
# [1] = HEK-Blue cells overexpressing human TLR9, stimulated with ODN2006 5 nM, 22 hour incubation, reporter readout
# [2] = HEK-Blue cells overexpressing human TLR9, stimulated with ODN2006 5 nM, read-out: TLR 9 IC50
Structure (SMILES),IC50 (human TLR9; [1]) [nM],IC50 (human TLR9; [2]) [nM],IC50 (human TLR7) [nM],IC50 (human TLR8) [nM],IC50 (human TLR9; HEK-Blue human TLR9 reporter cells) [nM],IC50 (human TLR9) [nM]
"Cc1cc(-c2ccc(CN3CCC(N4CCC4)CC3)c(F)c2)cc2c1nc(-c1ccc(S(C)(=O)=O)cc1)n2C [Example 403, 6-(4-((4-(azetidin-1-yl)piperidin-1-yl)methyl)-3-fluorophenyl)-1,4-dimethyl-2-(4-(methylsulfonyl)phenyl)-1H-benzo[d]imidazole]",81,94,300,15800,–,–
"COCCN1CCCC(N2CCC(c3cc(F)c4nc(-c5ccc(S(C)(=O)=O)cc5)n(C)c4c3)CC2)CC1 (single isomer, unassigned) [Example 303, 4-fluoro-6-(1-(1-(2-methoxyethyl)azepan-4-yl)piperidin-4-yl)-1-methyl-2-(4-(methylsulfonyl)phenyl)-1H-benzo[d]imidazole]",–,14,4200,> 50000,14,–
"COCCN1C2CCC1CC(N1CCC(c3ccc4nc(-c5ccc(S(C)(=O)=O)cc5)n(C)c4c3F)CC1)C2 (single isomer, unassigned) [Example 277, 7-fluoro-6-(1-(8-(2-methoxyethyl)-8-azabicyclo[3.2.1]octan-3-yl)piperidin-4-yl)-1-methyl-2-(4-(methylsulfonyl)phenyl)-1H-benzo[d]imidazole]",–,269,1000,16300,–,270
"COCCN1C2CCC1CC(N1CCC(c3cc4nc(-c5ccc(S(C)(=O)=O)cc5)n(C)c4cc3F)CC1)C2 (centres unmarked) [Example 258, 6-fluoro-5-(1-(8-(2-methoxyethyl)-8-azabicyclo[3.2.1]octan-3-yl)piperidin-4-yl)-1-methyl-2-(4-(methylsulfonyl)phenyl)-1H-benzo[d]imidazole]",–,100,18800,> 50000,–,100
"COCCN1CCC(N2CCC(c3cc4nc(-c5ccc(S(C)(=O)=O)cc5)n(C)c4cc3F)CC2)CC1 [Example 246, 6-fluoro-5-(1′-(2-methoxyethyl)-[1,4′-bipiperidin]-4-yl)-1-methyl-2-(4-(methylsulfonyl)phenyl)-1H-benzo[d]imidazole]",–,398,26200,> 50000,–,400
"CC(C)N1CCC(N2CCC(c3cc(F)c4nc(-c5ccc(S(C)(=O)=O)cc5)n(C)c4c3)CC2)CC1 [Example 105, 4-fluoro-6-(1′-isopropyl-[1,4′-bipiperidin]-4-yl)-1-methyl-2-(4-(methylsulfonyl)phenyl)-1H-benzo[d]imidazole]",95,–,25500,> 50000,–,–
"COc1ccc(-c2nc3cc(C4CCN(C5CCN(CC(C)C)CC5)CC4)c(C(F)(F)F)cc3[nH]2)cc1OC [Example 42, 2-(3,4-dimethoxyphenyl)-5-(1′-isobutyl-[1,4′-bipiperidin]-4-yl)-6-(trifluoromethyl)-1H-benzo[d]imidazole]",260,255,32000,> 50000,–,–

# Further lines, results first:
IC50 (human TLR9; [1]) [nM],IC50 (human TLR9; [2]) [nM],IC50 (human TLR7) [nM],IC50 (human TLR8) [nM],IC50 (human TLR9; HEK-Blue human TLR9 reporter cells) [nM],IC50 (human TLR9) [nM],Structure (SMILES)
–,–,> 50000,> 50000,–,25,"CS(=O)(=O)c1ccc(-c2nc3ccc(C4CCN(C5CCN(C6CCC6)CC5)CC4)c(F)c3[nH]2)cc1 [Example 180, 6-(1′-cyclobutyl-[1,4′-bipiperidin]-4-yl)-7-fluoro-2-(4-(methylsulfonyl)phenyl)-1H-benzo[d]imidazole]"
–,1730,> 50000,> 50000,–,1700,"Cn1c(-c2ccc(S(C)(=O)=O)cc2)nc2cc(F)c(C3CCN(C4CC5CCC(C4)N5C4COC4)CC3)cc21 (single isomer, unassigned) [Example 235, 5-fluoro-1-methyl-2-(4-(methylsulfonyl)phenyl)-6-(1-(8-(oxetan-3-yl)-8-azabicyclo[3.2.1]octan-3-yl)piperidin-4-yl)-1H-benzo[d]imidazole]"
72,–,18600,> 25000,–,–,"Cc1cc(C2CCN(C3CC4CCC(C3)N4C(C)C)CC2)cc2c1nc(-c1ccc(S(C)(=O)=O)cc1)n2C (single isomer, unassigned) [Example 84, 6-(1-(8-isopropyl-8-azabicyclo[3.2.1]octan-3-yl)piperidin-4-yl)-1,4-dimethyl-2-(4-(methylsulfonyl)phenyl)-1H-benzo[d]imidazole]"
76,76,1500,1300,–,–,"Cc1cc(-c2ccc(C3CCN(C4CCN(C)CC4)CC3)cc2)cc2c1nc(-c1ccc(S(C)(=O)=O)cc1)n2C [Example 400, 1,4-dimethyl-6-(4-(1′-methyl-[1,4′-bipiperidin]-4-yl)phenyl)-2-(4-(methylsulfonyl)phenyl)-1H-benzo[d]imidazole]"
